The values that follow come from article PMC11951083, “Highly Specific Miniaturized Fluorescent Monoacylglycerol Lipase Probes Enable Translational Research” (Journal of the American Chemical Society, 2025).

The term IC50 denotes the point on the concentration scale where inhibition reaches its midpoint.

In experiment [1] the target is T1, MAGL (Homo sapiens, UniProt Q99685).
T1 sequence (Q99685 1-303): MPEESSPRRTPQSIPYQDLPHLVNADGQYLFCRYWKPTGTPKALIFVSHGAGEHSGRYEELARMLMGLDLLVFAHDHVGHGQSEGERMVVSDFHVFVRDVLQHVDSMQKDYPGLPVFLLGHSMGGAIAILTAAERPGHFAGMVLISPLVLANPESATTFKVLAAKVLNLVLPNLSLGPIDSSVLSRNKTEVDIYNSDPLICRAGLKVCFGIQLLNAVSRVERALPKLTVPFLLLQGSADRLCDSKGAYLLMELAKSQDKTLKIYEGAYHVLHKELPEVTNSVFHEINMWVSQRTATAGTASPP
On the set-up: method as in earlier work. As to conditions: Table S2, literature compounds; ref (1), (6)-(12) as indicated per compound; cited from earlier work.

For experiment [2], the target named is T1, MAGL. Description: ABPP target occupancy in patient-derived PBMCs. Format: cell-based. The arrangement: native, human patient-derived peripheral blood monocytes (PBMCs); endogenous in cells; host or cells: human PBMCs from buffy coats. As for the experimental part: minutes at RT. Subsequently, 0.5 µL MB064 (40x stock in DMSO) was added to the proteome sample, vortexed briefly, and incubated for 10 minutes at RT, after which 0.5 µL FP-Bodipy-FL (40x stock in DMSO) was added, vortexed briefly and incubated for 10 minutes at RT. The final volume was 20 - 20.5 µL (5 - 7.5% DMSO). The reaction was quenched by the addition of 7.5 µL of 4*Laemmli-buffer (final concentrations: 60 mM Tris (pH 6.8), 2% (w/v) SDS, 10% (v/v) glycerol, 1.25% (v/v) β-mercaptoethanol, 0.01% (v/v) bromophenol blue). 10 µL (14 µg protein) of the quenched reaction mixture was resolved on 10% acrylamide SDS-PAGE (180 V, 75 min). Fluorescence was measured using a Biorad ChemiDoc MP system (fluorescence channels Cy2, Cy3, Cy5). Gels were then stained using coomassie staining and imaged for protein loading control. Labeling of the respective proteins via MB064 and FP-BODIPY was visualized in two separate channels. […]
PBMCs were thawed, washed with 1 x PBS and equal amounts of cells were exposed to DMSO (D2650; Sigma-Aldrich) or MAGL inhibitor PF (PF-06795071) in DMSO for 30 min at room temperature with concentrations ranging from 1 nM to 1000 nM. […] Samples were then separated by SDS-PAGE and bands were detected ChemiDoc Imager (Bio-Rad Laboratories). […] Gels were imaged and protein bands were quantified using Image Lab software (Bio-Rad Laboratories).

The target in experiment [3] is T1, MAGL. The experiment can be described thus: Competitive FP binding assay with probe 5 as tracer. As to conditions: 5 (20 nM), hMAGL (50 nM), irreversible inhibitors time-dependent.
In experiment [4] the test system is MAGL-Nluc fusion protein. The experiment can be described thus: Competition nanoBRET assay in live HEK293 cells with probe 4a as tracer. Format: cell-based. As to conditions: tracer 4a (100 nM), read-out: cellular IC50. The procedure: In vitro MAGL Inhibition Assay
Compounds were profiled for MAGL inhibitory activity by determining the enzymatic activity by following the hydrolysis of the natural substrate 2-arachidonoylglycerol (2-AG), resulting in arachidonic acid, which can be followed by mass spectrometry. The 2-AG assay was carried out in 384 well assay plates (PP, Greiner Cat# 784201) in a total volume of 20 µL. Compound dilutions were made in 100% DMSO (VWR Chemicals 23500.297) in a polypropylene plate in 3-fold dilution steps to give a final concentration range in the assay from 12.5 µM to 0.8 pM. […] The activity of the compounds was calculated based on the ratio of intensities [arachidonic acid / d8-arachidonic acid]. […]
A HEK293A stable cell line expressing NanoLuc_MAGL was established at Roche and assigned as HEK293A_NanoLuc_MAGL clone #43. […] The introduction of competing compounds results in a dose -dependent decrease in NanoBRET™ energy transfer, which allows quantification of the intracellular affinity of the target protein for the test compound.
HEK293A_NanoLuc_MAGL clone #43 cells were cultured in DMEM (Gibco 31966) with 10% FBS and 800 ug/ml G418. […] After 2 hours of incubation, Nanoluciferase substrates and extracellular inhibitors were added following the manufacturer's protocol (Promega, #N2520), and the NanoBRET signaling were quantified with the Paradigm (Molecular Devices).
Background: Bioluminescence resonance energy transfer reports proximity on the nanometre scale.

Structures are written as SMILES.

On to `O=C(O[C@H](CO)C(F)(F)F)N1C[C@@H]2C(c3ccn(-c4ccc(F)cc4)n3)[C@@H]2C1` (some centres unmarked) [PF-06795071], for which the IC50 is 3 nM in experiment [1] and 1600 nM in experiment [4]. Besides, the “loss of MAGL activity” value in experiment [2] (1 nM) is reported as 40%; in experiment [2] (10 nM), 93%. Further, the Ki in experiment [3] was determined as 12.8 ± 3.9 nM.
